≈ marks a conversion by molar mass, not a printed value. Read-outs that look alike come from different tables or passages of the source.
Columns and labels:
Format in all cases: cell-based
[1] = tested on: Streptococcus pyogenes A 308; test: MIC, standard strain 1; details: read-out: Minimal Inhibitory Concentration(MIC)
Procedure: (§1) In order to illustrate antibiotic effectiveness of the compounds of the present invention, the minimal inhibitory concentrations (MIC's) of the representative compounds were determined against standard strains and compared with ceftazidime and cefpirome, which were used as control compounds.
(§2) The MIC values were taken by employing a two-fold dilution method: that is, two-fold serial dilutions of each of the test compounds were made from initial concentration of […]; each 1.5 ml of them was dispersed in 13.5 ml of Muller Hinton agar medium to adjust to […]; the standard test strain which had the concentration of 10^7 CFU/ml was inoculated by medium;and these were incubated at 37° C. for 18 hours.
(§3) The test used twenty kinds of standard test strains which induced urinary tract infections, respiratory organ infections, skin soft tissue infections, plasma infections, gastrointestinal infections, central nervous system infections, most of which produce β-lactamase. The standard test strains used are as follows:
1. Streptococcus pyogenes A 308

[2] = tested on: Streptococcus pyogenes A 77; test: MIC, standard strain 2; details: A77, S. pyogenes A 77, two-fold dilution, Muller Hinton agar, 10^7 CFU/ml, 37° C., 18 hours, read-out: Minimal Inhibitory Concentration(MIC)
Procedure: as §1, §2, §3
2. Streptococcus pyogenes A 77

Streptococcus faecium 8b = test: MIC, standard strain 3; details: Enterococcus faecium; S. faecium 8b; two-fold dilution, Muller Hinton agar, 10^7 CFU/ml, 37° C., 18 hours; read-out: Minimal Inhibitory Concentration(MIC)
Procedure: as §1, §2, §3
3. Streptococcus faecium 8b

[3] = tested on: Staphylococcus aureus SG 511; test: MIC, standard strain 4; details: SG511, S. aureus SG 511, two-fold dilution, Muller Hinton agar, 10^7 CFU/ml, 37° C., 18 hours, read-out: Minimal Inhibitory Concentration(MIC)
Procedure: as §1, §2, §3
4. Staphylococcus aureus SG 511

[4] = tested on: Staphylococcus aureus 285; test: MIC, standard strain 5; details: read-out: Minimal Inhibitory Concentration(MIC)
Procedure: as §1, §2, §3
5. Staphylococcus aureus 285

[5] = tested on: Staphylococcus aureus 503; test: MIC, standard strain 6; details: Staphylococcus aureus; S. aureus 503; two-fold dilution, Muller Hinton agar, 10^7 CFU/ml, 37° C., 18 hours; read-out: Minimal Inhibitory Concentration(MIC)
Procedure: as §1, §2, §3
6. Staphylococcus aureus 503

Escherichia coli 0 55 = test: MIC, standard strain 7; details: 055, E. coli 0 55, two-fold dilution, Muller Hinton agar, 10^7 CFU/ml, 37° C., 18 hours, read-out: Minimal Inhibitory Concentration(MIC)
Procedure: as §1, §2
(§4) The test used twenty kinds of standard test strains which induced urinary tract infections, respiratory organ infections, skin soft tissue infections, plasma infections, gastrointestinal infections, central nervous system infections, most of which produce β-lactamase.

Escherichia coli DC 0 = test: MIC, standard strain 8; details: DC0, E. coli DC 0, two-fold dilution, Muller Hinton agar, 10^7 CFU/ml, 37° C., 18 hours, read-out: Minimal Inhibitory Concentration(MIC)
Procedure: as §1, §2, §4

Escherichia coli DC 2 = test: MIC, standard strain 9; details: DC2, E. coli DC 2, two-fold dilution, Muller Hinton agar, 10^7 CFU/ml, 37° C., 18 hours, read-out: Minimal Inhibitory Concentration(MIC)
Procedure: as §1, §2, §4

Escherichia coli TEM = test: MIC, standard strain 10; details: 18 h, read-out: Minimal Inhibitory Concentration(MIC)
Procedure: as §1, §2, §4

Escherichia coli 1507 E = test: MIC, standard strain 11; details: E. coli 1507 E, two-fold dilution, Muller Hinton agar, 10^7 CFU/ml, 37° C., 18 hours, read-out: Minimal Inhibitory Concentration(MIC)
Procedure: as §1, §2, §4

[6] = tested on: Pseudomonas aeruginosa 9.027; test: MIC, standard strain 12; details: Pseudomonas aeruginosa; P. aeruginosa 9.027; two-fold dilution, Muller Hinton agar, 10^7 CFU/ml, 37° C., 18 hours; read-out: Minimal Inhibitory Concentration(MIC)
Procedure: as §1, §2, §3
12. Pseudomonas aeruginosa 9.027

[7] = tested on: Pseudomonas aeruginosa 1592 E; test: MIC, standard strain 13; details: P. aeruginosa 1592 E, two-fold dilution, Muller Hinton agar, 10^7 CFU/ml, 37° C., 18 hours, read-out: Minimal Inhibitory Concentration(MIC)
Procedure: as §1, §2, §3
13. Pseudomonas aeruginosa 1592 E

[8] = tested on: Pseudomonas aeruginosa 1771; test: MIC, standard strain 14; details: Pseudomonas aeruginosa; P. aeruginosa 1771; two-fold dilution, Muller Hinton agar, 10^7 CFU/ml, 37° C., 18 hours; read-out: Minimal Inhibitory Concentration(MIC)
Procedure: as §1, §2, §3
14. Pseudomonas aeruginosa 1771

[9] = tested on: Pseudomonas aeruginosa 1771M; test: MIC, standard strain 15; details: 18 h, read-out: Minimal Inhibitory Concentration(MIC)
Procedure: as §1, §2, §3
15. Pseudomonas aeruginosa 1771M

Salmonella typhimurium = test: MIC, standard strain 16; details: Salmonella enterica; S. typhimurium; two-fold dilution, Muller Hinton agar, 10^7 CFU/ml, 37° C., 18 hours; read-out: Minimal Inhibitory Concentration(MIC)
Procedure: as §1, §2, §3
16. Salmonella typhimurium

[10] = tested on: Klebsiella aerogenes 1552 E; test: MIC, standard strain 18; details: K. aerogenes 1552 E, two-fold dilution, Muller Hinton agar, 10^7 CFU/ml, 37° C., 18 hours, read-out: Minimal Inhibitory Concentration(MIC)
Procedure: as §1, §2, §3
18. Klebsiella aerogenes 1552 E

[11] = tested on: Enterobacter cloacae P 99; test: MIC, standard strain 19; details: P99, 18 h, read-out: Minimal Inhibitory Concentration(MIC)
Procedure: as §1, §2, §3
19. Enterobacter cloacae P 99

[12] = tested on: Enterobacter cloacae 1321 E; test: MIC, standard strain 20; details: E. cloacae 1321 E, two-fold dilution, Muller Hinton agar, 10^7 CFU/ml, 37° C., 18 hours, read-out: Minimal Inhibitory Concentration(MIC)
Procedure: as §1, §2, §3
20. Enterobacter cloacae 1321 E

[13] = Staphylococcus aureus, S. aureus 285, two-fold dilution, Muller Hinton agar, 10^7 CFU/ml, 37° C., 18 hours

CCOC(=O)c1cc[n+](CC2=C(C(=O)[O-])N3C(=O)[C@@H](NC(=O)/C(=N\OC)c4csc(N)n4)[C@H]3SC2)c2c1CCC2 [Example 1]
MIC ([1]; A308, 18 h): 7 µg/mL (≈ 11.9 µM)
MIC [2]: 7 µg/mL (≈ 11.9 µM)
MIC (Streptococcus faecium 8b): 25000 µg/mL (≈ 42600 µM)
MIC [3]: 1560 µg/mL (≈ 2660 µM)
MIC ([4]; Staphylococcus aureus, 285, 18 h): 3120 µg/mL (≈ 5330 µM)
MIC [5]: 781 µg/mL (≈ 1330 µM)
MIC (Escherichia coli 0 55): 49 µg/mL (≈ 83.5 µM)
MIC (Escherichia coli DC 0): 49 µg/mL (≈ 83.5 µM)
MIC (Escherichia coli DC 2): 25 µg/mL (≈ 42.6 µM)
MIC (Escherichia coli TEM): 391 µg/mL (≈ 666 µM)
MIC (Escherichia coli 1507 E): 49 µg/mL (≈ 83.5 µM)
MIC [6]: 12500 µg/mL (≈ 21300 µM)
MIC [7]: 12500 µg/mL (≈ 21300 µM)
MIC [8]: 6250 µg/mL (≈ 10700 µM)
MIC [9]: 391 µg/mL (≈ 666 µM)
MIC (Salmonella typhimurium): 49 µg/mL (≈ 83.5 µM)
MIC [10]: 49 µg/mL (≈ 83.5 µM)
MIC [11]: 25000 µg/mL (≈ 42600 µM)
MIC [12]: 25 µg/mL (≈ 42.6 µM)

CO/N=C(\C(=O)N[C@@H]1C(=O)N2C(C(=O)[O-])=C(C[n+]3ccc(C(=O)O)c4c3CCC4)CS[C@H]12)c1csc(N)n1 [Example 2]
MIC ([1]; A308, S. pyogenes A 308, two-fold dilution, Muller Hinton agar, 10^7 CFU/ml, 37° C., 18 hours): 25 µg/mL (≈ 44.8 µM)
MIC [2]: 7 µg/mL (≈ 12.5 µM)
MIC (Streptococcus faecium 8b): 25000 µg/mL (≈ 44800 µM)
MIC [3]: 6250 µg/mL (≈ 11200 µM)
MIC [4, 13]: 6250 µg/mL (≈ 11200 µM)
MIC [5]: 3120 µg/mL (≈ 5590 µM)
MIC (Escherichia coli 0 55): 25 µg/mL (≈ 44.8 µM)
MIC (Escherichia coli DC 0): 49 µg/mL (≈ 87.7 µM)
MIC (Escherichia coli DC 2): 49 µg/mL (≈ 87.7 µM)
MIC (Escherichia coli TEM): 781 µg/mL (≈ 1400 µM)
MIC (Escherichia coli 1507 E): 25 µg/mL (≈ 44.8 µM)
MIC [6]: 12500 µg/mL (≈ 22400 µM)
MIC [7]: 12500 µg/mL (≈ 22400 µM)
MIC [8]: 3120 µg/mL (≈ 5590 µM)
MIC [9]: 391 µg/mL (≈ 700 µM)
MIC (Salmonella typhimurium): 49 µg/mL (≈ 87.7 µM)
MIC [10]: 25 µg/mL (≈ 44.8 µM)
MIC [11]: 100000 µg/mL (≈ 179000 µM)
MIC [12]: 25 µg/mL (≈ 44.8 µM)

CCO/N=C(\C(=O)N[C@@H]1C(=O)N2C(C(=O)[O-])=C(C[n+]3ccc(C(N)=O)c4c3CCC4)CS[C@H]12)c1csc(N)n1 [Example 13, 7-β-[(Z)-2-(2-aminothiazol-4-yl)-2-ethoxyiminoacetamido]-3-[(2,3-cyclopenteno-4-carbamoyl-1-pyridinium)methyl]-3-cephem-4-carboxylate]
MIC ([1]; A308, 18 h): 13 µg/mL (≈ 22.7 µM)
MIC [2]: 4 µg/mL (≈ 7 µM)
MIC (Streptococcus faecium 8b): 50000 µg/mL (≈ 87500 µM)
MIC [3]: 781 µg/mL (≈ 1370 µM)
MIC [4, 13]: 3120 µg/mL (≈ 5470 µM)
MIC [5]: 391 µg/mL (≈ 684 µM)
MIC (Escherichia coli 0 55): 25 µg/mL (≈ 43.7 µM)
MIC (Escherichia coli DC 0): 98 µg/mL (≈ 171 µM)
MIC (Escherichia coli DC 2): 49 µg/mL (≈ 85.7 µM)
MIC (Escherichia coli TEM): 195 µg/mL (≈ 341 µM)
MIC (Escherichia coli 1507 E): 98 µg/mL (≈ 171 µM)
MIC [6]: 6250 µg/mL (≈ 10900 µM)
MIC [7]: 3120 µg/mL (≈ 5470 µM)
MIC [8]: 1560 µg/mL (≈ 2730 µM)
MIC [9]: 195 µg/mL (≈ 341 µM)
MIC (Salmonella typhimurium): 49 µg/mL (≈ 85.7 µM)
MIC [10]: 49 µg/mL (≈ 85.7 µM)
MIC [11]: 12500 µg/mL (≈ 21900 µM)
MIC [12]: 25 µg/mL (≈ 43.7 µM)
